Reference: patent US7638639B2, “Substituted pyrrolidine and related compounds” (Theravance, Inc., priority 2003, dated 2009)
Read-outs that look alike come from different tables or passages of the source.

Tests used:
[1] = molecular target: T1, hM3 muscarinic receptor subtype (Homo sapiens, UniProt P20309); assay: Radioligand binding assay ([3H]-NMS displacement), hM3; details: for Δ hM3: change in binding affinity relative to compound of the invention: ratio of hM3 Ki values
T1 construct: expressed in transfected cells
T1 sequence (P20309 whole entry): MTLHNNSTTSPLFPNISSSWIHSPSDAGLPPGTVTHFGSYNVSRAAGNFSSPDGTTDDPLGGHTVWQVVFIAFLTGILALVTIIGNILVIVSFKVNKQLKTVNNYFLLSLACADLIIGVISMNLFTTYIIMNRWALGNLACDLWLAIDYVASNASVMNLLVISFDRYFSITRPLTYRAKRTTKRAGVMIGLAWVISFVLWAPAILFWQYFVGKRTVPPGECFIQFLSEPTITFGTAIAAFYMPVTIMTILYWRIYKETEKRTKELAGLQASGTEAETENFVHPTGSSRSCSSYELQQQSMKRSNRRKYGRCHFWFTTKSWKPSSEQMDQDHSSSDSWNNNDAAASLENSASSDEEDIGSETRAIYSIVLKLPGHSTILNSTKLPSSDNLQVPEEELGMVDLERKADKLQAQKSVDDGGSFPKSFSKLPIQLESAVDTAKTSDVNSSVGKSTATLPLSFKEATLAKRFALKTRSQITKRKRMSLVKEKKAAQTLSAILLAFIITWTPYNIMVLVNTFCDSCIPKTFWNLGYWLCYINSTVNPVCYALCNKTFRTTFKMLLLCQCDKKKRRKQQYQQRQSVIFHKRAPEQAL
Experimental: (§1) A. Membrane Preparation from Cells Expressing hM1, hM2, hM3 and hM4 Muscarinic Receptor Subtypes
(§2) CHO (Chinese hamster ovary) cell lines stably expressing cloned human hM1, hM2, hM3 and hM4 muscarinic receptor subtypes, respectively, were grown to near confluency in medium consisting of HAM's F-12 supplemented with 10% FBS (Fetal Bovine Serum) and 250 μg/mL Geneticin. The cells were grown in a 5% CO2, 37° C. incubator and lifted with 2 mm EDTA in dPBS. Cells were collected by 5 minute centrifugation at 650×g, and cell pellets were either stored frozen at −80° C. or membranes were prepared immediately. For membrane preparation, cell pellets were resuspended in lysis buffer and homogenized with a Polytron PT-2100 tissue disrupter (Kinematica AG; 20 seconds×2 bursts). Crude membranes were centrifuged at 40,000×g for 15 minutes at 4° C. The membrane pellet was then resuspended with resuspension buffer and homogenized again with the Polytron tissue disrupter. The protein concentration of the membrane suspension was determined by the method described in Lowry, O. et al., 1951, […]: 193, 265. All membranes were stored frozen in aliquots at −80° C. or used immediately. Aliquots of prepared hM5 receptor membranes were purchased directly from Perkin Elmer and stored at −80° C. until use.
(§3) B. Radioligand Binding Assay on Muscarinic Receptor Subtypes hM1, hM2, hM3, hM4 and hM5
(§4) Radioligand binding assays were performed in 96-well microtiter plates in a total assay volume of 100 μL. CHO cell membranes stably expressing either the hM1, hM2, hM3, hM4 or hM5 muscarinic subtype were diluted in assay buffer to the following specific target protein concentrations (μg/well): 10 μg for hM1, 10-15 μg for hM2, 10-20 μg for hM3, 10-20 μg for hM4, and 10-12 μg for hM5. The membranes were briefly homogenized using a Polytron tissue disruptor (10 seconds) prior to assay plate addition. Saturation binding studies for determining KD values of the radioligand were performed using L-[N-methyl-3H]scopolamine methyl chloride ([^3H]-NMS) (TRK666, 84.0 Ci/mmol, Amersham Pharmacia Biotech, Buckinghamshire, England) at concentrations ranging from 0.001 nM to 20 nM. Displacement assays for determination of Ki values of test compounds were performed with [^3H]-NMS at 1 nM and eleven different test compound concentrations. The test compounds were initially dissolved to a concentration of 400 μM in dilution buffer and then serially diluted 5× with dilution buffer to final concentrations ranging from […] to […]. The addition order and volumes to the assay plates were as follows: 25 μL radioligand, 25 μL diluted test compound, and 50 μL membranes. Assay plates were incubated for 60 minutes at 37° C. Binding reactions were terminated by rapid filtration over GF/B glass fiber filter plates (PerkinElmer Inc., Wellesley, Mass.) pre-treated in 1% BSA. Filter plates were rinsed three times with wash buffer (10 mm HEPES) to remove unbound radioactivity. Plates were then air dried, and 50 μL Microscint-20 liquid scintillation fluid (PerkinElmer Inc., Wellesley, Mass.) was added to each well. The plates were then counted in a PerkinElmer Topcount liquid scintillation counter (PerkinElmer Inc., Wellesley, Mass.). Binding data were analyzed by nonlinear regression analysis with the GraphPad Prism Software package (GraphPad Software, Inc., San Diego, Calif.) using the one-site competition model. Ki values for test compounds were calculated from observed IC50 values and the KD value of the radioligand using the Cheng-Prusoff equation (Cheng Y; Prusoff W H. (1973) Biochemical Pharmacology, 22(23):3099-108). Ki values were converted to pKi values to determine the geometric mean and 95% confidence intervals. These summary statistics were then converted back to Ki values for data reporting.

[2] = molecular target: T2, hM2 muscarinic receptor subtype (Homo sapiens, UniProt P08172); assay: Radioligand binding assay ([3H]-NMS displacement), hM2; details: for Ki: CHO cell membranes, [3H]-NMS 1 nM, read-out: hM2 binding affinity (Ki); for Δ hM2: change in binding affinity relative to compound of the invention: ratio of hM2 Ki values
T2 construct: expressed in transfected cells
T2 sequence (P08172 1-466): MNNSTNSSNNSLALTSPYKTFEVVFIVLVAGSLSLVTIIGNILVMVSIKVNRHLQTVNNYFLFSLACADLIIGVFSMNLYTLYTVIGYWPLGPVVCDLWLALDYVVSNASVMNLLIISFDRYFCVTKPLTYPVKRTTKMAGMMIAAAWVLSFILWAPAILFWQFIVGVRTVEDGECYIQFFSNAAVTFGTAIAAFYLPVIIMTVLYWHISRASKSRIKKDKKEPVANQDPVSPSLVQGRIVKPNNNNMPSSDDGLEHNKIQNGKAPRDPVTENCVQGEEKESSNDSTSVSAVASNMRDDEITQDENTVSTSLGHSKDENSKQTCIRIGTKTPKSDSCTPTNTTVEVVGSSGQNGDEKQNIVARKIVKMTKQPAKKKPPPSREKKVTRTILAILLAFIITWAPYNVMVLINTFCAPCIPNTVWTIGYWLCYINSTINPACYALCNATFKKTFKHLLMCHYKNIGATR
Experimental: as §1, §2, §3, §4

[3] = CHO cell membranes, [3H]-NMS 1 nM, read-out: hM3 binding affinity (Ki)
[4] = radioligand displacement, read-out: Ki value for hM3

| Structure (SMILES) | Ki [1, 3] [nM] | Ki [1, 4] [nM] | Δ hM3: change in binding affinity relative to compound of the invention [1] | Ki [2] [nM] | Δ hM2: change in binding affinity relative to compound of the invention [2] |
| --- | --- | --- | --- | --- | --- |
| CNCCCCCCCCCN1CC[C@@H](C(C(N)=O)(c2ccccc2)c2ccccc2)C1 [Example 14, 2-[(S)-1-(9-Methylaminnonyl)pyrrolidin-3-yl]-2,2-diphenylacetamide] | 0.66 | < 50 | ×37 | 1.7 | ×70 |
| NC(=O)C(c1ccccc1)(c1ccccc1)[C@@H]1CCN(CCCCCCCCNCCO)C1 [Example 8, 2-{(S)-1-[8-(2-Hydroxyethyl)aminooctyl]pyrrolidin-3-yl}-2,2-diphenylacetamide] | 5.1 |  | ×14 | 13 | ×6.3 |
| NC(=O)C(c1ccccc1)(c1ccccc1)[C@H]1CCN(CCCCCCCCNCc2ccccc2)C1 [Example 39, 2-[(R)-1-(8-Benzylaminooctyl)pyrrolidin-3-yl]-2,2-diphenylacetamide] |  | < 50 |  |  |  |
| CC(CCCCCCCN1CC[C@@H](C(C(N)=O)(c2ccccc2)c2ccccc2)C1)N(C)CCO (stereo partly drawn) [Comp. Ex. C, 2-{(S)-1-[8-N-(2-Hydroxyethyl)-N-methylaminononyl]pyrrolidin-3-yl}-2,2-diphenylacetamide, reference compound] | 73 |  |  | 83 |  |
| NCCCCCCCCN1CC[C@@H](C(C(N)=O)(c2ccccc2)c2ccccc2)C1 [Comp. Ex. D, 2-[(S)-1-(8-Aminooctyl)pyrrolidin-3-yl]-2,2-diphenylacetamide, reference compound] | 50 |  |  | 150 |  |
| CN(C)CCCCCCCCCN1CC[C@@H](C(C(N)=O)(c2ccccc2)c2ccccc2)C1 [Comp. Ex. B, 2-[(S)-1-(9-Dimethylaminononyl)pyrrolidin-3-yl]-2,2-diphenylacetamide, reference compound] | 25 |  |  | 120 |  |
| NC(=O)C(c1ccccc1)(c1ccccc1)[C@@H]1CCN(CCCCCCCCCNCc2ccccc2)C1 [Example 26, 2-[(S)-1-(9-Benzylaminononyl)pyrrolidin-3-yl]-2,2-diphenylacetamide] |  | < 50 |  |  |  |
| CNCCCCCCCCN1CC[C@H](C(C(N)=O)(c2ccccc2)c2ccccc2)C1 [Example 27, 2-[(R)-1-(8-Methylaminooctyl)pyrrolidin-3-yl]-2,2-diphenylacetamide] |  | < 50 |  |  |  |
| CN(C)CCCCCCCCN1CC[C@@H](C(C(N)=O)(c2ccccc2)c2ccccc2)C1 [Comp. Ex. A, 2-[(S)-1-(8-Dimethylaminooctyl)pyrrolidin-3-yl]-2,2-diphenylacetamide, reference compound] | 2.5 |  | ×52 | 18 | ×39 |
